Measurements from patent US8609847B2, “Dihydroquinolinone derivatives” (Taisho Pharmaceutical Co., Ltd, priority 2009, dated 2013).

Biological target: T1, human H3 receptor (Homo sapiens, UniProt Q9Y5N1)
T1 construct: purchased Perkin Elmer ES-392-M400UA; host or cells: CHO-K1 cells (recombinant expression), membrane preparation
Test: H3 Receptor Binding Test
Settings: 50% inhibition of R(−)-α-methyl[3H]histamine (1 nM) binding; membrane preparation of human H3 receptor-expressing CHO-K1 cells
Protocol: A membrane preparation of human H3 receptor-expressing CHO-K1 cells (Perkin Elmer, ES-392-M400UA, 15 μg protein/200 μl), R(−)-α-methyl[^3H]histamine (Amersham, TRK-1017, specific activity: 1.74 TBq/mmol, 1 nM) and a test drug were reacted at room temperature for 1 hour. After completion of the reaction, the reaction mixture was subjected to suction filtration through a 0.3% polyethyleneimine-treated glass filter (GF/C). The glass filter was washed five times with 50 mM Tris-HCl washing solution (pH 7.4) containing 5 mM EDTA. After washing, the glass filter was dried and a scintillator was added thereto, followed by measurement of radioactivity on the filter using a liquid scintillation counter.
Binding of R(−)-α-methyl[^3H]histamine in the presence of 10 μM R(−)-α-methylhistamine was defined as non-specific binding, and the difference between total binding and non-specific binding of R(−)-α-methyl[^3H]histamine was defined as specific binding of R(−)-α-methyl[^3H]histamine. A fixed concentration (1 nM) of R(−)-α-methyl[^3H]histamine was reacted under the above conditions with each test drug at various concentrations to obtain an inhibition curve. The inhibition curve was used to determine the concentration (IC50) of each test drug required for 50% inhibition of R(−)-α-methyl[^3H]histamine binding.

T1 sequence (Q9Y5N1 whole entry): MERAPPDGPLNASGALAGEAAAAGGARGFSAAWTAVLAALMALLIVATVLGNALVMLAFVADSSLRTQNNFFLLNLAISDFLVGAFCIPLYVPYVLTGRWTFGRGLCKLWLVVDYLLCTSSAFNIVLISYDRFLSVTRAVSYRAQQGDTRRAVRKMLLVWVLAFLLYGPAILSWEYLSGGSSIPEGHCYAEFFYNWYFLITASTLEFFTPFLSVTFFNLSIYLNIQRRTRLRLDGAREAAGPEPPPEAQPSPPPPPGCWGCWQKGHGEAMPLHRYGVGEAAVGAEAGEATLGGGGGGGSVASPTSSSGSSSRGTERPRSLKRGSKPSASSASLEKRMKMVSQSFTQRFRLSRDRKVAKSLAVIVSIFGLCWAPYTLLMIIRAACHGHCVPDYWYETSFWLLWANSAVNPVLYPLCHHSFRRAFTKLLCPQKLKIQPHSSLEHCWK

Row | Structure (SMILES) | IC50 [nM]
1 | C[C@@H]1CCCN1CCCOc1ccc2c(c1)CCC(=O)N2c1ccc(F)c(F)c1 [Compound No. 28, 1-(3,4-difluorophenyl)-6-{3-[(2R)-2-methylpyrrolidin-1-yl]propoxy}-3,4-dihydroquinolin-2(1H)-one] | 1
2 | COc1ccc(N2C(=O)CCc3cc(OCCCN4CCC[C@H]4C)ccc32)cc1C#N [Compound No. 33, 2-methoxy-5-[6-{3-[(2R)-2-methylpyrrolidin-1-yl]propoxy}-2-oxo-3,4-dihydroquinolin-1(2H)-yl]benzonitrile] | 4
3 | Cc1ccc(N2C(=O)CCc3cc(OCCCN4CCC[C@H]4C)ccc32)cc1 [Compound No. 3, 1-(4-methylphenyl)-6-{3-[(2R)-2-methylpyrrolidin-1-yl]propoxy}-3,4-dihydroquinolin-2(1H)-one] | 1
4 | C[C@@H]1CCCN1CCCOc1ccc2c(c1)CCC(=O)N2c1ccc(N2CCCC2=O)cc1 [Compound No. 18, 6-{3-[(2R)-2-methylpyrrolidin-1-yl]propoxy}-1-[4-(2-oxopyrrolidin-1-yl)phenyl]-3,4-dihydroquinolin-2(1H)-one] | 20
5 | C[C@@H]1CCCN1CCCOc1ccc2c(c1)CCC(=O)N2c1ccccn1 [Compound No. 34, 6-{3-[(2R)-2-methylpyrrolidin-1-yl]propoxy}-1-(pyridin-2-yl)-3,4-dihydroquinolin-2(1H)-one] | 8.1
6 | Cc1ccc(Oc2ccc(N3C(=O)CCc4cc(OCCCN5CCC[C@H]5C)ccc43)cc2)nn1 [Compound No. 20, 1-{4-[(6-methylpyridazin-3-yl)oxy]phenyl}-6-{3-[(2R)-2-methylpyrrolidin-1-yl]propoxy}-3,4-dihydroquinolin-2(1H)-one] | 1
7 | C[C@@H]1CCCN1CCCOc1ccc2c(c1)CCC(=O)N2c1ccc(Cl)cc1 [Compound No. 7, 1-(4-chlorophenyl)-6-{3-[(2R)-2-methylpyrrolidin-1-yl]propoxy}-3,4-dihydroquinolin-2(1H)-one] | 1.6
8 | C[C@@H]1CCCN1CCCOc1ccc2c(c1)CCC(=O)N2c1ccc(OC(F)(F)F)cc1 [Compound No. 9, 6-{3-[(2R)-2-methylpyrrolidin-1-yl]propoxy}-1-[4-(trifluoromethoxy)phenyl]-3,4-dihydroquinolin-2(1H)-one] | 3.5
9 | C[C@@H]1CCCN1CCCOc1ccc2c(c1)CCC(=O)N2c1ccc(C(F)(F)F)cc1 [Compound No. 8, 6-{3-[(2R)-2-methylpyrrolidin-1-yl]propoxy}-1-[4-(trifluoromethyl)phenyl]-3,4-dihydroquinolin-2(1H)-one] | 1.6
10 | C[C@@H]1CCCN1CCCOc1ccc2c(c1)CCC(=O)N2c1cncnc1 [Compound No. 36, 6-{3-[(2R)-2-methylpyrrolidin-1-yl]propoxy}-1-(pyrimidin-5-yl)-3,4-dihydroquinolin-2(1H)-one] | 5.8
11 | C[C@@H]1CCCN1CCCOc1ccc2c(c1)CCC(=O)N2c1ccc(C#N)cc1 [Compound No. 1, 4-[6-{3-[(2R)-2-methylpyrrolidin-1-yl]propoxy}-2-oxo-3,4-dihydroquinolin-1(2H)-yl]benzonitrile] | 4.4
12 | COc1ccccc1N1C(=O)CCc2cc(OCCCN3CCC[C@H]3C)ccc21 [Compound No. 23, 1-(2-methoxyphenyl)-6-{3-[(2R)-2-methylpyrrolidin-1-yl]propoxy}-3,4-dihydroquinolin-2(1H)-one] | 1.2
13 | C[C@@H]1CCCN1CCCOc1ccc2c(c1)CCC(=O)N2c1ccc2c(ccn2C(=O)OC(C)(C)C)c1 [Compound No. 41, tert-butyl 5-[6-{3-[(2R)-2-methylpyrrolidin-1-yl]propoxy}-2-oxo-3,4-dihydroquinolin-1(2H)-yl]-1H-indole-1-carboxylate] | 53
14 | C[C@@H]1CCCN1CCCOc1ccc2c(c1)CCC(=O)N2c1cc(Cl)cc(C#N)c1 [Compound No. 31, 3-chloro-5-[6-{3-[(2R)-2-methylpyrrolidin-1-yl]propoxy}-2-oxo-3,4-dihydroquinolin-1(2H)-yl]benzonitrile] | 1.9
15 | C[C@@H]1CCCN1CCCOc1ccc2c(c1)CCC(=O)N2c1ccc2ncccc2c1 [Compound No. 38, 6-{3-[(2R)-2-methylpyrrolidin-1-yl]propoxy}-3,4-dihydro-2H-1,6′-biquinolin-2-one] | 2.9
16 | C[C@@H]1CCCN1CCCOc1ccc2c(c1)CCC(=O)N2c1cncc2cccnc12 [Compound No. 40, 6-{3-[(2R)-2-methylpyrrolidin-1-yl]propoxy}-1-(1,6-naphthylizin-8-yl)-3,4-dihydroquinolin-2(1H)-one] | 20
17 | COc1ccc(N2C(=O)CCc3cc(OCCCN4CCC[C@H]4C)ccc32)cc1 [Compound No. 4, 1-(4-methoxyphenyl)-6-{3-[(2R)-2-methylpyrrolidin-1-yl]propoxy}-3,4-dihydroquinolin-2(1H)-one] | 2.7
18 | C[C@@H]1CCCN1CCCOc1ccc2c(c1)CCC(=O)N2c1cccc(F)c1 [Compound No. 24, 1-(3-fluorophenyl)-6-{3-[(2R)-2-methylpyrrolidin-1-yl]propoxy}-3,4-dihydroquinolin-2(1H)-one] | 0.92

More lines, now with the values ahead:

Row | IC50 [nM] | Structure (SMILES)
19 | 2.2 | C[C@@H]1CCCN1CCCOc1ccc2c(c1)CCC(=O)N2c1ccc2c(c1)OCCO2 [Compound No. 43, 1-(2,3-dihydro-1,4-benzodioxin-6-yl)-6-{3-[(2R)-2-methylpyrrolidin-1-yl]propoxy}-3,4-dihydroquinolin-2(1H)-one]
20 | 4.9 | CC(C)(C)N1CCC(Oc2ccc3c(c2)CCC(=O)N3c2ccc(C#N)cc2)CC1 [Compound No. 62, 4-{6-[(1-tert-butylpiperidin-4-yl)oxy]-2-oxo-3,4-dihydroquinolin-1(2H)-yl}benzonitrile]
21 | 2.3 | C[C@@H]1CCCN1CCCOc1ccc2c(c1)CCC(=O)N2c1ccc2c(c1)OCC2 [Compound No. 45, 1-(2,3-dihydro-1-benzofuran-6-yl)-6-{3-[(2R)-2-methylpyrrolidin-1-yl]propoxy}-3,4-dihydroquinolin-2(1H)-one]
22 | 8.5 | CC(C)(C)N1CCC(Oc2ccc3c(c2)CCC(=O)N3c2cnc3ccccc3c2)CC1 [Compound No. 59, 6-[(1-tert-butylpiperidin-4-yl)oxy]-3,4-dihydro-2H-1,3′-biquinolin-2-one]
23 | 12 | COc1ccc(N2C(=O)CCc3cc(OC4CCN(C(C)(C)C)CC4)ccc32)cn1 [Compound No. 65, 6-[(1-tert-butylpiperidin-4-yl)oxy]-1-(6-methoxypyridin-3-yl)-3,4-dihydroquinolin-2(1H)-one]
24 | 4.8 | C[C@@H]1CCCN1CCCOc1ccc2c(c1)CCC(=O)N2c1ccn(C)c(=O)c1 [Compound No. 54, 1-(1-methyl-2-oxo-1,2-dihydropyridin-4-yl)-6-{3-[(2R)-2-methylpyrrolidin-1-yl]propoxy}-3,4-dihydroquinolin-2(1H)-one]
25 | 1.3 | C[C@@H]1CCCN1CCCOc1ccc2c(c1)CCC(=O)N2c1ccc2[nH]ccc2c1 [Compound No. 56, 1-(1H-indol-5-yl)-6-{3-[(2R)-2-methylpyrrolidin-1-yl]propoxy}-3,4-dihydroquinolin-2(1H)-one]
26 | 0.76 | C[C@@H]1CCCN1CCCOc1ccc2c(c1)CCC(=O)N2c1c[nH]c2ccccc12 [Compound No. 57, 1-(1H-indol-3-yl)-6-{3-[(2R)-2-methylpyrrolidin-1-yl]propoxy}-3,4-dihydroquinolin-2(1H)-one]
27 | 34 | C[C@@H]1CCCN1CCCOc1ccc2c(c1)CCC(=O)N2c1cn(C(=O)OC(C)(C)C)c2ccccc12 [Compound No. 42, tert-butyl 3-[6-{3-[(2R)-2-methylpyrrolidin-1-yl]propoxy}-2-oxo-3,4-dihydroquinolin-1(2H)-yl]-1H-indole-1-carboxylate]
28 | 5.4 | COc1ccc2ncc(N3C(=O)CCc4cc(OCCCN5CCC[C@H]5C)ccc43)cc2c1 [Compound No. 55, 6′-methoxy-6-{3-[(2R)-2-methylpyrrolidin-1-yl]propoxy}-3,4-dihydro-2H-1,3′-biquinolin-2-one]
29 | 1.2 | C[C@@H]1CCCN1CCCOc1ccc2c(c1)CCC(=O)N2c1ccc2c(c1)OCO2 [Compound No. 44, 1-(1,3-benzodioxol-5-yl)-6-{3-[(2R)-2-methylpyrrolidin-1-yl]propoxy}-3,4-dihydroquinolin-2(1H)-one]
30 | 13 | CCN(CC)CCCOc1ccc2c(c1)CCC(=O)N2c1ccc(F)cc1 [Compound No. 83, 6-[3-(diethylamino)propoxy]-1-(4-fluorophenyl)-3,4-dihydroquinolin-2(1H)-one]
31 | 6.1 | CC(C)(C)N1CCC(Oc2ccc3c(c2)CCC(=O)N3c2cccc(C#N)c2)CC1 [Compound No. 63, 3-{6-[(1-tert-butylpiperidin-4-yl)oxy]-2-oxo-3,4-dihydroquinolin-1(2H)-yl}benzonitrile]
32 | 13 | O=C1CCc2cc(OCCCN3CCCC3)ccc2N1c1ccc(F)cc1 [Compound No. 78, 1-(4-fluorophenyl)-6-[3-(pyrrolidin-1-yl)propoxy]-3,4-dihydroquinolin-2(1H)-one]
33 | 9.1 | O=C1CCc2cc(OCCCN3CCCCC3)ccc2N1c1ccc(F)cc1 [Compound No. 82, 1-(4-fluorophenyl)-6-[3-(piperidin-1-yl)propoxy]-3,4-dihydroquinolin-2(1H)-one]
